ChEMBL document CHEMBL1201862, “PubChem BioAssay data set” (2004)
The source made the active and inactive calls.

Assays:
[1] = inhibitors of clade B AD8 Env fusion, dose response, cell-based, cherry-pick (AID 652062); type: functional;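 further: luciferase signal from cell-cell fusion driven by HIV-1 clade B AD8 Env; potency is for inhibitors of fusion seen as a drop in luminescence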
[2] = inhibitors of HIV Env-driven cell fusion, dose response, cherry-pick (AID 652057); type: functional, cell-based
[3] = off-target signal loss in HeLa-CEM21 co-culture – HeLa F-luc CTL cells, cherry-picked, counter-screen for HIV-1 Env fusion inhibitor project, dose response (AID 652040); type: functional, cell-based;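 further: potency for signal decrease marking cytotoxic or nonspecific inhibition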
[4] = ZM109 Env clade C HIV-1 fusion inhibitors, dose response, HeLa effector, CEM target cells, luciferase, cherry-pick (AID 652058); type: functional, cell-based
Paired box protein Pax-8 = Paired box protein Pax-8 (Homo sapiens, UniProt Q06710); assay: inhibitors of PAX8-driven TPO luciferase reporter, dose response, RMG-I cells, cherry-pick (AID 687027); type: functional, cell-based;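 further: luciferase reporter driven by Pax8 target thyroperoxidase promoter measured by SteadyGlo luminescence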
[5] = non-specific cell cytotoxicity, dose response, cytotoxicity control for PAX8 inhibitor project, plate reader, dry powder samples (AID 743021); type: functional, cell-based
[6] = target: T1, Sentrin-specific protease 8 (Homo sapiens, UniProt Q96LD8); type: functional;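 further: luminescence read-out of SENP8 inhibition, dose-response confirmation following an ultra-high-throughput screen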
T1 sequence (Q96LD8 whole entry): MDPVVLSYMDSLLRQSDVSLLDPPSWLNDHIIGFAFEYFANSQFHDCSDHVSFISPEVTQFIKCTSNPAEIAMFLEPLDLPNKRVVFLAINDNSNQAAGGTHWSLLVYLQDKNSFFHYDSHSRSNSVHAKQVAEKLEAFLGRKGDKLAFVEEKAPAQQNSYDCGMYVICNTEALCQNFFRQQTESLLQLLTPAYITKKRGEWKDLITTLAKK

[7] = target: T2, Sentrin-specific protease 7 (Homo sapiens, UniProt Q9BQF6); type: functional;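 further: Luminescence-based dose-response confirmation of ultra-high-throughput screening hits, measuring inhibition of SENP7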
T2 sequence (Q9BQF6 whole entry): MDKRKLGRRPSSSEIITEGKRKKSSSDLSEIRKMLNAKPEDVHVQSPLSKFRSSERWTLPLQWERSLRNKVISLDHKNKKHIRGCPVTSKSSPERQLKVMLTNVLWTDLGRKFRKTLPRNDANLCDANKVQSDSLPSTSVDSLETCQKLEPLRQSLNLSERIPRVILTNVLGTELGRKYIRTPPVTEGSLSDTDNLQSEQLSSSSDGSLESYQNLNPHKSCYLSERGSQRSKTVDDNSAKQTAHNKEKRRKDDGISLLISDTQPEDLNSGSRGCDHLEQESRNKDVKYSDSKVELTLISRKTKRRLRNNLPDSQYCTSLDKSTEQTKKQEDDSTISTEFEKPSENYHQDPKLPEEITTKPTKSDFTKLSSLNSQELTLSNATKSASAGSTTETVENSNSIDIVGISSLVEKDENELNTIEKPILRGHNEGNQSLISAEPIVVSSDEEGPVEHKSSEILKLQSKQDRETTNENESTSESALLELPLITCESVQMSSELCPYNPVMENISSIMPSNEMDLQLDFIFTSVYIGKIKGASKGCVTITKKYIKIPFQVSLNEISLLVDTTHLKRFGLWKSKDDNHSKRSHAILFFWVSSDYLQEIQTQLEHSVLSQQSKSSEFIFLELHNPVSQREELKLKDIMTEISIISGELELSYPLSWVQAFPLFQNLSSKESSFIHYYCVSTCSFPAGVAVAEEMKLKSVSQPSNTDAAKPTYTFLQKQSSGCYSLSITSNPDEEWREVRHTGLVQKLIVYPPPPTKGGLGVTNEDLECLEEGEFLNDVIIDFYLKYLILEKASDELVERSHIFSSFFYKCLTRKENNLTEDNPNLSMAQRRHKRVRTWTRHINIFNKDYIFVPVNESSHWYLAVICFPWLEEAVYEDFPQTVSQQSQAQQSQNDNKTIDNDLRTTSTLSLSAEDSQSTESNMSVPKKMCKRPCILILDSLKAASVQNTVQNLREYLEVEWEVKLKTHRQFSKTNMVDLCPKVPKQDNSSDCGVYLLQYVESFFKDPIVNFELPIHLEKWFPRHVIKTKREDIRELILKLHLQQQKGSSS

Caspase-3 = target: T3, Caspase-3 (Homo sapiens, UniProt P42574); type: functional;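 further: Dose-response selectivity test against caspase-3 for candidate inhibitors of sentrin-specific proteases (SENPs)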
T3 sequence (P42574 whole entry): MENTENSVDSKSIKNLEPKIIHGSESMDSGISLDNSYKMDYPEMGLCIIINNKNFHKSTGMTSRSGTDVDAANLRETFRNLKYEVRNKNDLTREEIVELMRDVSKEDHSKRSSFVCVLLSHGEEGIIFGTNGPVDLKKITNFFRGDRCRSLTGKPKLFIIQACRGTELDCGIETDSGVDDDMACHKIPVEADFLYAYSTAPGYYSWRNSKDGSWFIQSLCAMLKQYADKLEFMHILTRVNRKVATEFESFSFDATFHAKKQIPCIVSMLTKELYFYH

[8] = target: T4, Sentrin-specific protease 6 (Homo sapiens, UniProt Q9GZR1); type: functional;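 further: Luminescence-based dose-response confirmatory assay of SENP6 inhibition, following up an ultra-high-throughput screen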
T4 sequence (Q9GZR1 whole entry): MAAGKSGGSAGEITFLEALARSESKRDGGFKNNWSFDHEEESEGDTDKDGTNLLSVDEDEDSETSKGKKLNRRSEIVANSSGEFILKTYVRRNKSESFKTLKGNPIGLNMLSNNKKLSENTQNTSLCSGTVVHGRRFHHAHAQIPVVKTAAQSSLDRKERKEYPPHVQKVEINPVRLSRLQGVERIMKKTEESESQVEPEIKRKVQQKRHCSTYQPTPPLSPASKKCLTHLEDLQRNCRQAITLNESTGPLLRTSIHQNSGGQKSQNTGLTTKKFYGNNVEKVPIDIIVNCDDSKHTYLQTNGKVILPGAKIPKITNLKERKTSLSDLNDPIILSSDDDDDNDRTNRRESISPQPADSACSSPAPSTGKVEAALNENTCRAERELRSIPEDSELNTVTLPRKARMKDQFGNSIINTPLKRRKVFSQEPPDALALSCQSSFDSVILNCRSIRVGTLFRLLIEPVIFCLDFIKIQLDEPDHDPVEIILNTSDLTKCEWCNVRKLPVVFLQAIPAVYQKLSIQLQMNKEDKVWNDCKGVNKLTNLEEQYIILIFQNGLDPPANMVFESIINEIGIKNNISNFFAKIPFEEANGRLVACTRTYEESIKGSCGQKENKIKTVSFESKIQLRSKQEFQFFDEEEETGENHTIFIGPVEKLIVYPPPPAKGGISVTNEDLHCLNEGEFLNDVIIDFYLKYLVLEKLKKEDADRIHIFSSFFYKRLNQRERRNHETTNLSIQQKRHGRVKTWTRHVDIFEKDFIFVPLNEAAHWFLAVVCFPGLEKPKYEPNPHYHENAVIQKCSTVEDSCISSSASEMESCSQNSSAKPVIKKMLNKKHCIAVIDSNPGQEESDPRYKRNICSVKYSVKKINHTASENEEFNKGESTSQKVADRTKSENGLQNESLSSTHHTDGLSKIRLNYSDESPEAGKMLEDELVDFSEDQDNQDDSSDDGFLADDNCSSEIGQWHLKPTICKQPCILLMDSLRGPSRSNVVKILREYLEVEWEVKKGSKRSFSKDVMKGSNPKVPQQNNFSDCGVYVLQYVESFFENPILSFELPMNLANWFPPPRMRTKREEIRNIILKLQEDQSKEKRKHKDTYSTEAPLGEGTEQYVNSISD

[9] = target: Peroxisome proliferator-activated receptor gamma/Nuclear receptor coactivator 2 (Homo sapiens, UniProt P37231); assay: (§1) TR-FRET dose response biochemical High Throughput Screening assay for agonists of the steroid receptor coactivator 2 (SRC-2) recruitment by the peroxisome proliferator-activated receptor gamma (PPAR gamma): non-selective agonists. [Related pubchem assays: 1297, 1032 ]; type: functional
[10] = target: Peroxisome proliferator-activated receptor gamma/Nuclear receptor coactivator 3 (Homo sapiens, UniProt P37231); assay: as §1, with “3 (SRC-3)” for “2 (SRC-2)”, “1301 (Confirmation screen.), 1048 (Primary screen.)]” for “1297, 1032 ]”; type: functional
Major prion protein = Major prion protein (Homo sapiens, UniProt P04156); type: functional, cell-based
[11] = target: Peroxisome proliferator-activated receptor gamma/Nuclear receptor coactivator 1 (Homo sapiens, UniProt P37231); assay: as §1, with “1 (SRC-1)” for “2 (SRC-2)”, “assays (depositor defined):AID1300, AID1808, AID504735, AID631]” for “assays: 1297, 1032 ]”; type: protein assay
[12] = target: T5, Apoptotic protease-activating factor 1 (Homo sapiens, UniProt O14727); type: functional
T5 sequence (O14727 whole entry): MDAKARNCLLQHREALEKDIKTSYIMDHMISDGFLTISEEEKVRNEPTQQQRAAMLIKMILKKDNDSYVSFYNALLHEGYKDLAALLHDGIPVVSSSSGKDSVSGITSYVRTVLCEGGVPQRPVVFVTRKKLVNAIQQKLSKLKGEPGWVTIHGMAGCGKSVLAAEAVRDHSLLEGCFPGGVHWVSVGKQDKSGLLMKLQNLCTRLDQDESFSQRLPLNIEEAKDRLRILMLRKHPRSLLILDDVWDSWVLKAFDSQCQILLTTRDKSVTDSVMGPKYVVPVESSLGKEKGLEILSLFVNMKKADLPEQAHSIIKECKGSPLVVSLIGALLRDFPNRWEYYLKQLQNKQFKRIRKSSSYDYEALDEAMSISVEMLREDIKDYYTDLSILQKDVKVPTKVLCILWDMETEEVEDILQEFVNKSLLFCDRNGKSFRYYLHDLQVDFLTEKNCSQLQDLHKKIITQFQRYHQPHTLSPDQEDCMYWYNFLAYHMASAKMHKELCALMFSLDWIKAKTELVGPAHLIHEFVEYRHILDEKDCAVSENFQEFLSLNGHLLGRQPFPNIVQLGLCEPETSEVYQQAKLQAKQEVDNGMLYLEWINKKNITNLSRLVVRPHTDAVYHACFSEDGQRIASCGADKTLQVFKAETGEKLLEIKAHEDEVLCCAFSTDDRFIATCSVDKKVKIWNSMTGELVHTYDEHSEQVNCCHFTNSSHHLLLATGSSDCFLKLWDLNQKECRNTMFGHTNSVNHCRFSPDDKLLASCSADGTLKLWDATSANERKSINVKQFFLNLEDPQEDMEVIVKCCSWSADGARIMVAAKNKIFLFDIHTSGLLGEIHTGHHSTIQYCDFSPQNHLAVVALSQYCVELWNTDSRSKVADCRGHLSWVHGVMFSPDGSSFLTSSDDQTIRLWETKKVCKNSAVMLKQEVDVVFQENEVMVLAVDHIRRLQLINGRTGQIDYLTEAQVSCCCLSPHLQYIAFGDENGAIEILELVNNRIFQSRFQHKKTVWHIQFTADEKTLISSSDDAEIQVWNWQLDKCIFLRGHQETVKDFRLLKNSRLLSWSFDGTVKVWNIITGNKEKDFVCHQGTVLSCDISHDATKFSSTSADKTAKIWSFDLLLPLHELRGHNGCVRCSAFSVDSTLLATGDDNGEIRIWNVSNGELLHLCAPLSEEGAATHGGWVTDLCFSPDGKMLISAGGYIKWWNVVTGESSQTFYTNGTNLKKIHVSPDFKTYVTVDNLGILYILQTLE

Structure (SMILES): COc1cc(CNCc2ccc(OC)c3ccccc23)cc(OC)c1OC
- AC50 [1]: 51 µM (active)
- AC50 [2]: 23.8 µM (active)
- AC50 [3]: > 70 µM (inactive)
- AC50 [4]: 31.8 µM (active)

Structure (SMILES): COc1cccc(N(C(=O)c2ccco2)c2nc(-c3sc(NC(=O)c4ccco4)nc3C)cs2)c1
- AC50 (Paired box protein Pax-8): 2.1 µM (active)
- AC50 [5]: 62 µM (active)

Structure (SMILES): CCOC(=O)c1cc(-c2cc3ccccc3o2)[nH]n1
- IC50 [6]: 34.8 µM (active)
- IC50 [7]: 5.55 µM (active)
- IC50 (Caspase-3): 15.4 µM (active)
- IC50 [8]: 21.6 µM (active)

Structure (SMILES): CCCCNC(=O)CSc1nc(CCC)nc2ccccc12
- EC50 [9]: > 79.4 µM (not active)
- EC50 [10]: > 79.4 µM (not active)
- IC50 (Major prion protein): 14.7 µM (inactive)
- IC50 (cells): > 138 µM (inactive)
- EC50 [11]: > 79.4 µM (inactive)

Structure (SMILES): Clc1ccccc1OCc1nn2c(-c3ccncc3)nnc2s1
- IC50 [12]: 8.4 µM (active)

Structure (SMILES): COc1ccc(Oc2ccc(/C=C/C(=O)c3cccc(OC)c3)cc2[N+](=O)[O-])cc1
- AC50 (Paired box protein Pax-8): 14.5 µM (active)
- AC50 [5]: 54.3 µM (active)

Structure (SMILES): O=C(O)c1ccc(NC2=C(N3CCOCC3)C(=O)c3ccccc3C2=O)cc1
- IC50 [12]: 35.8 µM (active)

Structure (SMILES): CC(C)CCN(C(=O)c1csnn1)C(C(=O)NC1CCCC1)c1ccc(F)cc1 (centres undefined)
- AC50 [1]: 5.93 µM (active)
- AC50 [2]: 4.72 µM (active)
- AC50 [3]: 5.56 µM (active)
- AC50 [4]: 7.51 µM (active)

Structure (SMILES): COC(=O)C1=C(C)N(Cc2ccc(C(F)(F)F)cc2)C(NCc2ccccc2)=NC1c1cccc(Cl)c1 (centres undefined)
- AC50 (Paired box protein Pax-8): 12.3 µM (active)
- AC50 [5]: 20.9 µM (active)

Structure (SMILES): CC(C)OCCCNC1=C(Cl)C(=O)c2ccccc2C1=O
- IC50 [6]: 25.7 µM (active)
- IC50 [7]: 19.4 µM (active)
- IC50 (Caspase-3): 6.38 µM (active)
- IC50 [8]: 8.48 µM (active)
